# Reference: ChEMBL document CHEMBL1128795, “N-(Quinuclidin-3-yl)-2-(1-methyl-1H-indol-3-yl)-2-oxo-acetamide: a high affinity 5-HT3 receptor partial agonist” (Bioorg Med Chem Lett, 1995)
# Legend:
# [1] = biological target: T1, 5-hydroxytryptamine receptor 1A (Mus musculus, UniProt Q64264); assay: Binding affinity against 5-hydroxytryptamine 1A receptor
# T1 sequence (Q64264 whole entry): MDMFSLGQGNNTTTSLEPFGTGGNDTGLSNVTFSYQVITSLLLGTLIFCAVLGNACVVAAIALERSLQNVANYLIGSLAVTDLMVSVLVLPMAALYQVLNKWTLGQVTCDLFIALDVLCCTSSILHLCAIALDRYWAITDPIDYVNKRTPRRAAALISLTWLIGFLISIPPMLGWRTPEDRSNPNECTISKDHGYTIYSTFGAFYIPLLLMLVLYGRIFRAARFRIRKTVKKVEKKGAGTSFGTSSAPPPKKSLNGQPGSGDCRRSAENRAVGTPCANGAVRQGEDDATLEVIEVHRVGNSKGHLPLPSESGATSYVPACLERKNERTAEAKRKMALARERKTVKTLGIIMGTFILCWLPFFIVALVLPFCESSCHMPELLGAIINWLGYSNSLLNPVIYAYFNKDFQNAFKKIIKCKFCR
# [2] = biological target: 5-hydroxytryptamine receptor 2A (Homo sapiens, UniProt P28223); assay: Binding affinity against 5-Hydroxytryptamine 2A receptor
# [3] = biological target: T2, 5-hydroxytryptamine receptor 2C (Homo sapiens, UniProt P28335); assay: Binding affinity against 5-hydroxytryptamine 2C receptor
# T2 sequence (P28335 whole entry): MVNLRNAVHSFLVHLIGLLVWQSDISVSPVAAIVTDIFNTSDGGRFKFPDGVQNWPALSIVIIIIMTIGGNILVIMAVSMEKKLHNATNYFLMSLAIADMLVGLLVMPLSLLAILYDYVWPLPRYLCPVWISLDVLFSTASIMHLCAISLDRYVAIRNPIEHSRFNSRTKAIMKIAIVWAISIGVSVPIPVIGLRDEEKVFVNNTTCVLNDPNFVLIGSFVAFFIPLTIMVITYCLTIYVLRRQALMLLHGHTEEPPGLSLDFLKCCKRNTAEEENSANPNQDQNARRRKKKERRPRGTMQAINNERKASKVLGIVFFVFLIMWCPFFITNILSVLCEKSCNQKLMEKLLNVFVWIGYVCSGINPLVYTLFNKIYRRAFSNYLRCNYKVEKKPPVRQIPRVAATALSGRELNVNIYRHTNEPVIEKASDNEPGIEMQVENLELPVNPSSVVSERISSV
# [4] = biological target: T3, Alpha-1B adrenergic receptor (Homo sapiens, UniProt P35368); assay: Binding affinity against Adrenogenic Alpha-1B receptor
# T3 sequence (P35368 whole entry): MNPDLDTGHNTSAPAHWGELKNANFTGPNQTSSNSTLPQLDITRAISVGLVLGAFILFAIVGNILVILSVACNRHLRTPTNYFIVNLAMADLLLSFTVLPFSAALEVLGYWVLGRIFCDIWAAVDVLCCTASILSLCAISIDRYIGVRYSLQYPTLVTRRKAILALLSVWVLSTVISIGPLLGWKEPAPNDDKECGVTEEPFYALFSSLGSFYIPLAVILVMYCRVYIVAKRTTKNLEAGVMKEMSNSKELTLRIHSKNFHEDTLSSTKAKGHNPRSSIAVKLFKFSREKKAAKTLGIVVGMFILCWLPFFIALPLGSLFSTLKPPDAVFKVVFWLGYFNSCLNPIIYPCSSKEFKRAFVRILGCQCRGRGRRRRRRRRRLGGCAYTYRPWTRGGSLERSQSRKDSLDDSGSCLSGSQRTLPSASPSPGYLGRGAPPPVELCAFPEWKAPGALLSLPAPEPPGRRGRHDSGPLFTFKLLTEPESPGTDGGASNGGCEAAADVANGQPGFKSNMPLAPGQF
# [5] = biological target: Beta-2 adrenergic receptor (Homo sapiens, UniProt P07550); assay: Binding affinity against Beta-2 adrenergic receptor
# [6] = biological target: T4, Muscarinic acetylcholine receptor M2 (Homo sapiens, UniProt P08172); assay: Binding affinity against Muscarinic M2 receptor
# T4 sequence (P08172 whole entry): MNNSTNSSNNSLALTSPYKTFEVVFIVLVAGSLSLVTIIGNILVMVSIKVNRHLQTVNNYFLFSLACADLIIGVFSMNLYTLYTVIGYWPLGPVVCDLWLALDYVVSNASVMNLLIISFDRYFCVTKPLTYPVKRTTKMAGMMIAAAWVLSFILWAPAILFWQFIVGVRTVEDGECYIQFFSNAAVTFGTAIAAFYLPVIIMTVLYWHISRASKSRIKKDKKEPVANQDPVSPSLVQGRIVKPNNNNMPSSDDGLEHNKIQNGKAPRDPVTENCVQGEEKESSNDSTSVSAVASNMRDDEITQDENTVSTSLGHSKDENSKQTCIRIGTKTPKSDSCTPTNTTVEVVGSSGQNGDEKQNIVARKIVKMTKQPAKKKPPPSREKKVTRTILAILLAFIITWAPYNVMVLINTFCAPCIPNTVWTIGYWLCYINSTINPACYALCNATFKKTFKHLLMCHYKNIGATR
# [7] = biological target: T5, Muscarinic acetylcholine receptor M1 (Homo sapiens, UniProt P11229); assay: Binding affinity against Muscarinic M1 receptor
# T5 sequence (P11229 whole entry): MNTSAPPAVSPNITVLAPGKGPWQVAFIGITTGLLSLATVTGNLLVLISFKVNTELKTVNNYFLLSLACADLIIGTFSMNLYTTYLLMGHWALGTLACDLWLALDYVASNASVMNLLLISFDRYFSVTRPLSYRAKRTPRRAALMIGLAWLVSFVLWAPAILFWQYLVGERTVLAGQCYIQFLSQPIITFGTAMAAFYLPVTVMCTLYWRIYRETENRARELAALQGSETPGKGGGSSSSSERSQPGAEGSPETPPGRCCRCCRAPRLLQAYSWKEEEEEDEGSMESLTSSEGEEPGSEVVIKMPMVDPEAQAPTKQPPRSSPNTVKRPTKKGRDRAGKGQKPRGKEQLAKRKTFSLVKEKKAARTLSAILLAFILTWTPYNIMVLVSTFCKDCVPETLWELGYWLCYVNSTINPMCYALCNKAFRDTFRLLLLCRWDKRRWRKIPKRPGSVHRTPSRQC
# [8] = biological target: Serotonin 3 (5-HT3) receptor (Rattus norvegicus) (UniProt P35563+Q9JJ16); assay: Agonist activity against 2-methyl-5-HT induced bradycardia (von Bezold-Jarisch (B-J) reflex) in anesthetized rats; type: functional
# D(2) dopamine receptor = D(2) dopamine receptor (Homo sapiens, UniProt P14416); assay: Binding affinity against Dopamine D2 receptor
# Sequence of D(2) dopamine receptor (P14416 whole entry): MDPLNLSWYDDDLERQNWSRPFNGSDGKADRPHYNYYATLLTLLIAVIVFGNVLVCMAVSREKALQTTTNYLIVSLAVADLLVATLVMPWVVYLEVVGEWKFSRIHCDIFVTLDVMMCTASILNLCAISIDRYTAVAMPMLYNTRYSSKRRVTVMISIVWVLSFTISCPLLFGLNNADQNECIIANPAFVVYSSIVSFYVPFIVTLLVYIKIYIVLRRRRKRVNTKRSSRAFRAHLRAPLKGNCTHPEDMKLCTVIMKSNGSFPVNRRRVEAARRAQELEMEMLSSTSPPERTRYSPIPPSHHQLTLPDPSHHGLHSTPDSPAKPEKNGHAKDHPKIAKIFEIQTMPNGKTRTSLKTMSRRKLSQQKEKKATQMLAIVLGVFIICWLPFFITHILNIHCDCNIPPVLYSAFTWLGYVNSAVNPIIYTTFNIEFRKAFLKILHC
# Sequence of Beta-2 adrenergic receptor (P07550 whole entry): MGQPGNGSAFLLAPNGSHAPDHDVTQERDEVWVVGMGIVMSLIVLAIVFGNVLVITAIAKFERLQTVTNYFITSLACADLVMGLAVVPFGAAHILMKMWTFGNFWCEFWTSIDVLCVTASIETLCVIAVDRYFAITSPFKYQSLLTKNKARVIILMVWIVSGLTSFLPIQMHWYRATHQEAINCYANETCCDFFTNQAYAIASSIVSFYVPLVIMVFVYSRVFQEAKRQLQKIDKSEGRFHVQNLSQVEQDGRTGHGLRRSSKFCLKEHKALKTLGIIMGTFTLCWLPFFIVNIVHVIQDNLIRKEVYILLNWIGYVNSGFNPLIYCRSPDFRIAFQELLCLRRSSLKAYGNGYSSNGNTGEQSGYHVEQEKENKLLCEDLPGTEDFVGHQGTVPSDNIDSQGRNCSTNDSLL
# Sequence of 5-hydroxytryptamine receptor 2A (P28223 whole entry): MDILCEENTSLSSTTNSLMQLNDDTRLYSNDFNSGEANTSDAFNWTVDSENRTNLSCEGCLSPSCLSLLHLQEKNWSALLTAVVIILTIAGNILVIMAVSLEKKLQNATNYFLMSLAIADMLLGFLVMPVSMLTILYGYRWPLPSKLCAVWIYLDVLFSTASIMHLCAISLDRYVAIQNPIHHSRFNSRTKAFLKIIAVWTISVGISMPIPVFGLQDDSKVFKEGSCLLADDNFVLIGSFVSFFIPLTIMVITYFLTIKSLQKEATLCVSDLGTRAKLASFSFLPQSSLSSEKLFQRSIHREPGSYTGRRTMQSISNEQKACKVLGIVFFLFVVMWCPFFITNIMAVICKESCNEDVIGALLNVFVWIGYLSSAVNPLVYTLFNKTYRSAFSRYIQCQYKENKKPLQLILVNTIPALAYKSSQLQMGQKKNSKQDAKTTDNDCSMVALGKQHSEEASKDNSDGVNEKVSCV
SMILES,Ki [1] [µM],Ki [2] [µM],Ki [3] [µM],Ki [4] [µM],Ki [5] [µM],Ki [6] [µM],Ki [7] [µM],ED50 [8] [µg/kg],Ki (D(2) dopamine receptor) [µM]
Cn1cc(C(=O)C(=O)N[C@@H]2CN3CCC2CC3)c2ccccc21,> 100,25.1,12.6,15.8,> 100,50.1,25.1,8.5,> 100
Cn1cc(C(=O)C(=O)N[C@H]2CN3CCC2CC3)c2ccccc21,> 100,12.6,15.8,> 10,> 10,50.1,10,0.6,> 100
